Experimental data: the NIST ThermoML archive (doi:10.1021/acs.jced.8b00492)
Numbers after ± are expanded uncertainties.

Key:
[1] = for surface tension liquid-gas: Ring tensiometer; for viscosity: 100 kPa, Liquid, Capillary tube (Ostwald / Ubbelohde) method
[2] = mn = molality of the nth substance listed, in mol/kg; details: m2 = 0; for surface tension liquid-gas: Ring tensiometer; for viscosity / mass density / speed of sound: 100 kPa, Liquid; for viscosity: Capillary tube (Ostwald / Ubbelohde) method; for mass density: Vibrating tube method; for speed of sound: Frequency=3 MHz, Single path-length method

Compound: O [water]
- surface tension liquid-gas ([1]; 293.15 K): 72.6 ± 0.9 mN/m
- viscosity ([1]; 293.15 K): 0.993 ± 0.05 mPa·s
- surface tension liquid-gas ([1]; 303.15 K): 71.1 ± 0.9 mN/m
- viscosity ([1]; 303.15 K): 0.802 ± 0.05 mPa·s
- surface tension liquid-gas ([1]; 313.15 K): 69.2 ± 0.9 mN/m
- viscosity ([1]; 313.15 K): 0.661 ± 0.05 mPa·s
- surface tension liquid-gas ([1]; 323.15 K): 67.7 ± 0.9 mN/m
- viscosity ([1]; 323.15 K): 0.555 ± 0.05 mPa·s

Compound: O [water] + C1N2CN3CN1CN(C2)C3
- surface tension liquid-gas ([2]; 293.15 K): 72.6 ± 0.9 mN/m
- viscosity ([2]; 293.15 K): 0.993 ± 0.05 mPa·s
- surface tension liquid-gas ([2]; 303.15 K): 71.1 ± 0.9 mN/m
- viscosity ([2]; 303.15 K): 0.802 ± 0.05 mPa·s
- mass density ([2]; 303.15 K): 995.9 ± 2 kg/m3
- surface tension liquid-gas ([2]; 313.15 K): 69.2 ± 0.9 mN/m
- viscosity ([2]; 313.15 K): 0.661 ± 0.05 mPa·s
- speed of sound ([2]; 313.15 K): 1529.1 ± 0.7 m/s
- mass density ([2]; 313.15 K): 992.3 ± 2 kg/m3
- surface tension liquid-gas ([2]; 323.15 K): 67.7 ± 0.9 mN/m
- viscosity ([2]; 323.15 K): 0.555 ± 0.05 mPa·s
- speed of sound ([2]; 323.15 K): 1541.5 ± 0.7 m/s
